In ChEMBL document CHEMBL1151583, “Conformationally-restricted analogs of TXA2 antagonist SQ 33,961: Receptor binding conformation of the carboxyl sidechain” (Bioorg Med Chem Lett, 1991) one finds IC50 data, which are given here for two compounds.

pIC50: −log10 of the molar value.

The assay is filed under the species Homo sapiens. Kind of assay: In vitro ability to inhibit arachidonic acid induced platelet aggregation (AAIPA). The assay is classed as functional. Particulars: read-out: I50.

In the case of `O=C(O)CCc1ccccc1/C=C1\C2CCC(O2)C1c1nc(C(=O)NCCCCC2CCCCC2)co1` (configuration not stated), the pIC50 was 8.10. `O=C(O)CCc1ccccc1/C=C1/C2CCC(O2)C1c1nc(C(=O)NCCCCC2CCCCC2)co1` (configuration not stated): the pIC50 was 4.90.
